Key:
[1] = system: LHRH receptor expressing tumor cells; details: free Dox relative to LHRH-conjugated Dox; cited from earlier work
[2] = system: Human peripheral blood mononuclear cells (PBMC); assay: Cytokine induction in human cells (PBMC), Ella Simple Plex ELISA; type: cell-based; details: 21-24 hours, lowest concentration giving cytokine at least 2x negative control, tested 0.01-30 micromolar
Method: Whole blood was obtained from healthy human donors and collected by venipuncture into vacutainer tubes or syringes containing EDTA. Human peripheral blood mononuclear cells (PBMC) were purified from the whole blood by density gradient centrifugation. Histopaque 1077 (15 mL, Sigma, St. Louis, MO) was transferred to 6×50 mL sterile polypropylene conical tubes. The Histopaque was overlayed with 15-25 mL of blood diluted 1:2 in Hank's Balanced Salts Solution (HBSS) (Gibco, Life Technologies, Grand Island, NY). The tubes were then centrifuged at 1370 rpm for 30 minutes at 20° C., with no brake (400×g, GH 3.8 A Rotor).
The interface (buffy coat) containing the PBMC was collected and placed in a new sterile 50 mL conical polypropylene centrifuge tube. The PBMC were mixed with an equal volume of HBSS (about 20 mL from the interface and about 20 mL of HBSS), and then centrifuged at 1090 rpm, 10 minutes, 20° C., with brake (270×g, GH 3.8 A Rotor). After completing centrifugation, the cells were resuspended in 2-3 mL ACK Red blood cell lysis buffer (ammonium chloride potassium solution, Gibco, Life Technologies) and incubated for 2-5 minutes at 20° C. Next, HBSS (40 mL) was added to the cells, and the sample was centrifuged at 270×g for 10 minutes at 20° C. The supernatant was decanted, and the cell pellet was resuspended in 5 mL AIM V Medium (Gibco, Life Technologies). Cell aggregates and debris were removed by filtering the cell solution through a BD Falcon 70 micron nylon cell strainer (BD Biosciences, San Jose, CA).
The number of viable cells was determined by counting with a Moxi Z instrument (ORFLO Technologies, Ketchum, ID) or by using a hemacytometer. For determining cell viability with a hemacytometer, the cells were diluted 1/10 in 0.4% trypan blue and HBSS (specifically, 50 microliter of trypan blue+40 microliter of HBSS+10 microliter of cell solution were added to a microfuge tube and mixed). Ten microliters of the diluted cells were then applied to the hemacytometer, and the number of viable PBMC were determined by microscopy.
The PBMC sample was then resuspended in 96-well plates at a concentration of 8×10^5 cells/well in 0.1 mL of AIM-V medium. Each compound was solubilized in dimethyl sulfoxide (DMSO) to create a 3 mM stock solution. The stock solution was then further diluted with AIM-V medium to prepare the serial dilutions. The diluted compound (100 microliters) was then transferred to the PBMCs to produce testing sets with final compound concentrations of 30, 10, 3.3, 1.1, 0.37, 0.12, 0.04, 0.01 micromolar. The plates also had both positive and negative controls. The negative control wells contained only AIM-V medium with no example compound. The positive control wells contained a control set of imiquimod serially diluted to concentrations of 30, 10, 3.3, 1.1, 0.37, 0.12, 0.04, 0.01 micromolar. The concentrations used in the control set were selected to match the concentrations used in the testing set. The plates were then cultured at 37° C./5% CO2 for 21-24 hours. Cell-free supernatants were harvested by centrifuging the 96-well plates at 2100 rpm, 23° C. for 10 minutes. Approximately 160 microliters of the supernatant was then stored in a NUNC 96-well plate, covered with the compression cap and stored at −80° C. until the cytokine analysis was done.
Cytokine levels (human IFN-alpha multisubtype, human IFN-gamma, and human TNF-alpha) were measured in picograms/mL by Ella Simple Plex ELISA (ProteinSimple, San Jose, CA) according to the manufacturer's instructions.
Specifically, the minimum effective concentration of each compound (micromolar) was determined as the lowest concentration of the compound that induced a measured cytokine response at a level ([…]) that was at least 2× greater than that observed with the negative control wells.

human TLR7 = target: T1, human TLR7 (Homo sapiens, UniProt Q9NYK1); assay: TLR activation and specificity, HEK-BLUE-hTLR7 SEAP reporter cells; type: cell-based; details: 16-20 hours, lowest concentration giving SEAP response at least 2x vehicle control, tested 0.01-30 micromolar
T1 construct: host or cells: HEK293 (HEK-BLUE-hTLR7)
T1 sequence (Q9NYK1 27-1049): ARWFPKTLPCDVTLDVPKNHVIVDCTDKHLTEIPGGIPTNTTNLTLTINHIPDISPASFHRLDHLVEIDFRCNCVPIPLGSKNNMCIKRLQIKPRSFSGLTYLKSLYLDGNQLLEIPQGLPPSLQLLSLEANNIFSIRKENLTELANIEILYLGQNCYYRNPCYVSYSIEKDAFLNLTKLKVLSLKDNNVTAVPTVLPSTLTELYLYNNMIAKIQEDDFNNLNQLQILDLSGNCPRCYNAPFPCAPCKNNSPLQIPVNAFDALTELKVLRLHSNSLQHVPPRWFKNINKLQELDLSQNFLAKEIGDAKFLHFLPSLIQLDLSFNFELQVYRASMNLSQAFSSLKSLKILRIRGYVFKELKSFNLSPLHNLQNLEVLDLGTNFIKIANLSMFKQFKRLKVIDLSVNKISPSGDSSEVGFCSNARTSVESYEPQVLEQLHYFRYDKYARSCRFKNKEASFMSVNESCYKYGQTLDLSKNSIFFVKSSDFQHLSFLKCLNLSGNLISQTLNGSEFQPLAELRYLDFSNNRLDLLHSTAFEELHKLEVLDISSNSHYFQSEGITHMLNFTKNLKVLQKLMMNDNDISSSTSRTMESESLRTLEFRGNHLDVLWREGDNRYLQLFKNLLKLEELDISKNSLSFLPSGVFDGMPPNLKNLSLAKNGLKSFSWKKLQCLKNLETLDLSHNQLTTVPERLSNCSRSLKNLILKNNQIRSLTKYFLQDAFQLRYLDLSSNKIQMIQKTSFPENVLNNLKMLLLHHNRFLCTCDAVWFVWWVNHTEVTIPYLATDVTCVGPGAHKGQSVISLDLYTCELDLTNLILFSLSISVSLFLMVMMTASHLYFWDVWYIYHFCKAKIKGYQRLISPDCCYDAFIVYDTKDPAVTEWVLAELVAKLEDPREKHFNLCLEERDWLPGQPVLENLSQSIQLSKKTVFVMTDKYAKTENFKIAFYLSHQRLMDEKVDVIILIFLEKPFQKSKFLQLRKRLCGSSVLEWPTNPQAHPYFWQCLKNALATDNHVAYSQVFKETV
Method: (§1) HEK-BLUE-hTLR7 or hTLR8 reporter cells were obtained from InvivoGen, San Diego, CA. According to the manufacturer's description, these reporter cells were prepared by co-transfection of HEK293 cells with an inducible secreted embryonic alkaline phosphatase (SEAP) reporter gene and either the human TLR7 or TLR8 gene. The SEAP reporter gene was placed under the control of an IFN-β minimal promoter fused to five NF-κB and AP-1-binding sites. In the presence of a TLR ligand, activation of NF-κB and AP-1 occurs, resulting in a corresponding increase in SEAP levels. […]
(§2) For each compound, hTLR7, hTLR8, and their respective null control HEK cells were screened. […] Cell culture supernatants containing the SEAP reporter were collected after an incubation period of 16-20 hours in a cell culture incubator (37° C. and 5% CO2), and either analyzed immediately or stored at −80° C. SEAP levels were measured using the colorimetric enzyme assay (QUANTI-BLUE (InvivoGen) according to manufacturer's instructions.
(§3) Specifically, the minimum effective concentration of each compound (micromolar) was determined as the lowest concentration of the compound that produced a SEAP expression response at least 2× greater than that observed with the vehicle control wells.

human TLR8 = target: T2, human TLR8 (Homo sapiens, UniProt Q9NR97); assay: TLR activation and specificity, HEK-BLUE-hTLR8 SEAP reporter cells; type: cell-based; details: 16-20 hours, lowest concentration giving SEAP response at least 2x vehicle control, tested 0.01-30 micromolar
T2 construct: host or cells: HEK293 (HEK-BLUE-hTLR8)
T2 sequence (Q9NR97 27-1041): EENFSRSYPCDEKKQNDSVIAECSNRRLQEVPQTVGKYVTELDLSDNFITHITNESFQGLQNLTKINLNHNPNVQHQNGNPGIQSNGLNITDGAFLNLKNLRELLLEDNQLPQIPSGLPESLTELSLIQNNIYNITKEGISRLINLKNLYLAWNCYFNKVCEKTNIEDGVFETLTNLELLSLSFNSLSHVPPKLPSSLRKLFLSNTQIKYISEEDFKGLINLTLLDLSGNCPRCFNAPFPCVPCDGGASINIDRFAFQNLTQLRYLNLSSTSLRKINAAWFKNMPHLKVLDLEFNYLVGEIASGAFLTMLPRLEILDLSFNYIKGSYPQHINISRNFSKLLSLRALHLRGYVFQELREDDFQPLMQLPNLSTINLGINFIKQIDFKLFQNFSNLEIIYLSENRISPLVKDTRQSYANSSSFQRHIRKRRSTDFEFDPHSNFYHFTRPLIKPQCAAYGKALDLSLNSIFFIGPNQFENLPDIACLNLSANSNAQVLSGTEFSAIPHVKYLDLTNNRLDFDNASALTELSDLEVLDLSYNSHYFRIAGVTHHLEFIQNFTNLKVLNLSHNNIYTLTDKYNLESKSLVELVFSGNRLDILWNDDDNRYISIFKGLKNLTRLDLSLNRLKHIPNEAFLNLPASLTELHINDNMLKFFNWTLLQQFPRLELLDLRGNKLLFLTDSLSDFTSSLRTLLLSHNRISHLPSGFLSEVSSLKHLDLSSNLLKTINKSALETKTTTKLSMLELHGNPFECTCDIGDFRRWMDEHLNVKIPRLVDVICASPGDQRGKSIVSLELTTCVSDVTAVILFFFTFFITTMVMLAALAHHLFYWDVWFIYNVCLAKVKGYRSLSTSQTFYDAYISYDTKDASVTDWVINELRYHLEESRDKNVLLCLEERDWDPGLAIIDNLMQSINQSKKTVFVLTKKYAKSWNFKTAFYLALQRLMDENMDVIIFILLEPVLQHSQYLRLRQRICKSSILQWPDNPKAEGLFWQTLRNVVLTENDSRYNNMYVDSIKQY
Method: as §1, §2, §3

Compound | amount of free Dox required for antitumor activity equal to the LHRH conjugate [1] | MEC to Induce Cytokine IFN-alpha [2] [µM] | MEC to Induce Cytokine IFN-gamma [2] [µM] | MEC to Induce Cytokine TNF-alpha [2] [µM] | MEC to Produce TLR Activation, TLR 7 (human TLR7) [µM] | MEC to Produce TLR Activation, TLR 8 (human TLR8) [µM]
C[C@@H]1C[C@H]2[C@@H]3CCC4=CC(=O)C=C[C@]4(C)C3=CC[C@]2(C)[C@H]1C(=O)CN1CCN(c2cc(N3CCCC3)nc(N3CCCC3)n2)CC1 [Dox] | approximately 200 times | – | – | – | – | –
C#CCOc1ccc(C[C@@H](COCC)n2cnc3c(N)nc4ccccc4c32)cc1 [Example 1, (S)-1-(1-ethoxy-3-(4-(prop-2-yn-1-yloxy)phenyl)propan-2-yl)-1H-imidazo[4,5-c]quinolin-4-amine] | – | ≤0.01 | ≤0.01 | ≤0.01 | ≤0.01 | 10
CCOC[C@H](Cc1ccc(OCc2cn(Cc3ccccc3)nn2)cc1)n1cnc2c(N)nc3ccccc3c21 [Example 2, (S)-1-(1-(4-((1-benzyl-1H-1,2,3-triazol-4-yl)methoxy)phenyl)-3-ethoxypropan-2-yl)-1H-imidazo[4,5-c]quinolin-4-amine] | – | ≤0.01 | ≤0.01 | ≤0.01 | ≤0.01 | 3.3

Reference: patent US20230406855A1, “N-1 BRANCHED IMIDAZOQUINOLINES, CONJUGATES THEREOF, AND METHODS” (3M INNOVATIVE PROPERTIES COMPANY, priority 2020, published 2023)
